The source made the active and inactive calls. The rule behind the calls is not given here.
Assays:
Klebsiella pneumoniae = test: Inhibition of AAC(6')-1b in amikacin-resistant Klebsiella pneumoniae harboring AAC(6')-1b assessed as growth inhibition in presence of amikacin
[1] = Uncompetitive inhibition of AAC(6')-1b (unknown origin) expressed in Escherichia coli TOP10 assessed as reduction in acetylation of kanamycin A in presence of varying acetyl CoA by DTNB based microplate reader analysis
[2] = Mixed-noncompetitive inhibition of AAC(6')-1b (unknown origin) expressed in Escherichia coli TOP10 assessed as reduction in acetylation of kanamycin A in presence of varying kanamycin A and in presence of fixed acetyl CoA level by DTNB based microplate reader analysis
Acinetobacter baumannii [3] = test: Inhibition of AAC(6')-1b in amikacin-resistant Acinetobacter baumannii A155 harboring AAC(6')-1b assessed as growth inhibition at 50 uM in presence of 8 ug/ml amikacin
[4] = Inhibition of AAC(6')-1b (unknown origin) expressed in Escherichia coli TOP10 assessed as reduction in acetylation of kanamycin A in presence of acetyl CoA by DTNB based microplate reader analysis
[5] = Inhibition of AAC(6')-1b (unknown origin) expressed in Escherichia coli TOP10 assessed as reduction in acetylation of amikacin in presence of acetyl CoA by DTNB based microplate reader analysis
Acinetobacter baumannii [6] = test: Inhibition of AAC(6')-1b in amikacin-resistant Acinetobacter baumannii A155 harboring AAC(6')-1b assessed as growth inhibition at 100 uM in presence of 6 ug/ml amikacin

In the case of NCCc1cccc(CN2CCC(O)(CN3CCCCC3)C2)c1 (racemic), the “growth inhibition (GI)” value (Klebsiella pneumoniae) is reported as “inactive”, the inhibition [1] is reported as “Active” and the inhibition [2] is reported as “Active”. The inhibition (Acinetobacter baumannii [3]) was “Active”, the IC50 [4] was 39.7 µM and the IC50 [5] was 34.9 µM. For the same compound, the inhibition (Acinetobacter baumannii [6]) was “Active”.

From ChEMBL document CHEMBL3779835, “Identification of an Inhibitor of the Aminoglycoside 6'-N-Acetyltransferase type Ib [AAC(6')-Ib] by Glide Molecular Docking” (Medchemcomm, 2016)
